In paper PMC9161374 (Science Translational Medicine, 2022):
Several values for one entry are separate records, joined by “and”; a condition that tells them apart may be missing. Equal entries are not always repeated. Where two headings read alike, the source gives them in different places.

Columns and labels:
[1] = test system: SARS-CoV-2 (Omicron, B.1.1.529)
[2] = test system: SARS-CoV-2 (Delta, B.1.617.2); assay: microbe, parasite or virus in culture; type: cell-based
SARS-CoV-2 Delta variant [3] = type: in vivo, K18-hACE2 mice; settings: for lung virus titers in plaque assays: ATV006 250 or 100 mg/kg, EIDD-2801 500 mg/kg
SARS-CoV-2 Delta variant [4] = type: in vivo, K18-hACE2 mice; settings: for % Initial weight / nucleocapsid gRNA copies/ μL / Log10 (FFU/g): individual animals; for % Initial weight: Fig.6B; for nucleocapsid gRNA copies/ μL: Fig.6C; for Log10 (FFU/g): Fig.6D

Question: For `CC(C)C(=O)OC[C@H]1O[C@@](C#N)(c2ccc3c(N)ncnn23)[C@H](O)[C@@H]1O` [ATV006], which fold potency improvement [1] is on record?
Answer: > 12 fold

Question: What about the “therapeutic index (CC50/EC50)” value [1] of the same compound?
Answer: 1207.55

Question: And the fold potency improvement [2]?
Answer: > 4 fold

Question: What about the “lung virus titers in plaque assays” value (SARS-CoV-2 Delta variant [3]; […]) of the same compound?
Answer: below the limit of detection

Question: What about the “Ccl2 transcript, Vehicle/ATV006 fold change + standard error of the mean” value (SARS-CoV-2 Delta variant [3]; mouse, in vivo) of the same compound?
Answer: 24.69±25.14

Question: And the “Cxcl10 transcript, Vehicle/ATV006 fold change + standard error of the mean” value (SARS-CoV-2 Delta variant [3]; mouse, in vivo)?
Answer: 43.19±20.74

Question: What about the “Ifnb transcript, Vehicle/ATV006 fold change + standard error of the mean” value (SARS-CoV-2 Delta variant [3]; mouse, in vivo) of the same compound?
Answer: 5.85±4.59

Question: And the “Ifng transcript, Vehicle/ATV006 fold change + standard error of the mean” value (SARS-CoV-2 Delta variant [3]; mouse, in vivo)?
Answer: 25.56±17.77

Question: And the “Il1β transcript, Vehicle/ATV006 fold change + standard error of the mean” value (SARS-CoV-2 Delta variant [3]; mouse, in vivo)?
Answer: 0.66±0.01

Question: What about the “Il6 transcript, Vehicle/ATV006 fold change + standard error of the mean” value (SARS-CoV-2 Delta variant [3]; mouse, in vivo) of the same compound?
Answer: 3.14±2.37

Question: What about the “lung pathology (histopathology)” value (SARS-CoV-2 Delta variant [3]; mouse, in vivo) of the same compound?
Answer: reduced evidence of lung pathology

Question: And the “lung viral RNA compared to the control” value (SARS-CoV-2 Delta variant [3]; mouse, in vivo)?
Answer: significantly reducing viral RNA

Question: What about the “spike (S) protein of SARS-CoV-2 in lungs, immunohistochemistry” value (SARS-CoV-2 Delta variant [3]; mouse, in vivo) of the same compound?
Answer: hardly detectable

Question: What about the survival (SARS-CoV-2 Delta variant [3]; prophylactic dosing, orally once daily, […]) of the same compound?
Answer: prevent the death

Question: And the “% Initial weight” value (SARS-CoV-2 Delta variant [4]; 10mg/kg, 0d)?
Answer: 100%

Question: What about the “% Initial weight” value (SARS-CoV-2 Delta variant [4]; 10mg/kg, 1d) of the same compound?
Answer: 101.648% and 100.759% and 96.0784% and 96.7539% and 101.529%

Question: What about the “% Initial weight” value (SARS-CoV-2 Delta variant [4]; 10mg/kg, 2d) of the same compound?
Answer: 101.923% and 99.2405% and 97.0588% and 94.7644% and 103.824%

Question: What about the “% Initial weight” value (SARS-CoV-2 Delta variant [4]; 10mg/kg, 3d) of the same compound?
Answer: 98.9011% and 98.7342% and 96.5686% and 95.0262% and 104.706%

Question: What about the “nucleocapsid gRNA copies/ μL” value (SARS-CoV-2 Delta variant [4]; 10mg/kg) of the same compound?
Answer: 146414 copies/ μL and 275440 copies/ μL and 232362 copies/ μL and 312910 copies/ μL and 80285.6 copies/ μL

Question: What about the “% Initial weight” value (SARS-CoV-2 Delta variant [4]; 30mg/kg, 0d) of the same compound?
Answer: 100%

Question: What about the “% Initial weight” value (SARS-CoV-2 Delta variant [4]; 30mg/kg, 1d) of the same compound?
Answer: 102.538% and 104.147% and 99.7354% and 98.4143% and 100.606%

Question: What about the “% Initial weight” value (SARS-CoV-2 Delta variant [4]; 30mg/kg, 2d) of the same compound?
Answer: 101.015% and 104.987% and 97.619% and 97.6982% and 97.3539%

Question: What about the “% Initial weight” value (SARS-CoV-2 Delta variant [4]; 30mg/kg, 3d) of the same compound?
Answer: 101.777% and 105.249% and 100% and 99.7442% and 101.433%

Question: What about the “nucleocapsid gRNA copies/ μL” value (SARS-CoV-2 Delta variant [4]; 30mg/kg) of the same compound?
Answer: 13248.7 copies/ μL and 53687.7 copies/ μL and 90173.6 copies/ μL and 4602.2 copies/ μL and 1089.53 copies/ μL

Question: And the “Log10 (FFU/g)” value (SARS-CoV-2 Delta variant [4]; 30mg/kg)?
Answer: 285 FFU/g and 11142.9 FFU/g and 1428.57 FFU/g

Question: What about the “% Initial weight” value (SARS-CoV-2 Delta variant [4]; 80mg/kg, 0d) of the same compound?
Answer: 100%

Question: What about the “% Initial weight” value (SARS-CoV-2 Delta variant [4]; 80mg/kg, 1d) of the same compound?
Answer: 98.0198% and 99.4949% and 101.272% and 98.5163% and 99.5238%

Question: And the “% Initial weight” value (SARS-CoV-2 Delta variant [4]; 80mg/kg, 2d)?
Answer: 101.98% and 95.9596% and 100% and 98.635% and 104.762%

Question: And the “% Initial weight” value (SARS-CoV-2 Delta variant [4]; 80mg/kg, 3d)?
Answer: 103.96% and 97.3232% and 99.6438% and 102.077% and 105.357%

Question: And the “nucleocapsid gRNA copies/ μL” value (SARS-CoV-2 Delta variant [4]; 80mg/kg)?
Answer: 1775.52 copies/ μL and 4114.3 copies/ μL and 2639.93 copies/ μL and 10494.5 copies/ μL and 13845.3 copies/ μL

Question: What about the “Log10 (FFU/g)” value (SARS-CoV-2 Delta variant [4]; 80mg/kg) of the same compound?
Answer: 285 FFU/g

Question: And the “% Initial weight” value (SARS-CoV-2 Delta variant [4]; 150mg/kg, 0d)?
Answer: 100%

Question: What about the “% Initial weight” value (SARS-CoV-2 Delta variant [4]; 150mg/kg, 1d) of the same compound?
Answer: 98.25% and 98.7147% and 97.1922% and 101.765% and 97.8241%

Question: What about the “% Initial weight” value (SARS-CoV-2 Delta variant [4]; 150mg/kg, 2d) of the same compound?
Answer: 98.35% and 100% and 98.2721% and 105.229% and 95.8333%

Question: And the “% Initial weight” value (SARS-CoV-2 Delta variant [4]; 150mg/kg, 3d)?
Answer: 97.75% and 97.4293% and 97.1922% and 107.516% and 97.4537%

Question: What about the “nucleocapsid gRNA copies/ μL” value (SARS-CoV-2 Delta variant [4]; 150mg/kg) of the same compound?
Answer: 3137.57 copies/ μL and 1055.82 copies/ μL and 1750.74 copies/ μL and 2116.43 copies/ μL and 8855.34 copies/ μL

Question: What about the “Log10 (FFU/g)” value (SARS-CoV-2 Delta variant [4]; 150mg/kg) of the same compound?
Answer: 285 FFU/g

Question: And the “Viral titer in lungs” value (SARS-CoV-2 Delta variant [4]; mouse, in vivo)?
Answer: reduced below the detection limit

Question: What about the lung histopathology (SARS-CoV-2 Delta variant [4]; mouse, in vivo) of the same compound?
Answer: alleviated the symptoms in the lungs

Question: And the “viral load in the lungs” value (SARS-CoV-2 Delta variant [4]; mouse, in vivo)?
Answer: reduced viral load in the lungs

Question: How did the “lung virus titers in plaque assays” value (SARS-CoV-2 Delta variant [3]; […]) turn out when `CC(C)C(=O)OC[C@H]1O[C@@H](n2ccc(NO)nc2=O)[C@H](O)[C@@H]1O` [EIDD-2801, molnupiravir, reference compound] was run?
Answer: below the limit of detection

Question: What does the source list for `N#C[C@@]1(c2ccc3c(N)ncnn23)O[C@H](CO)[C@@H](O)[C@H]1O` [GS-441524, reference compound]?
Answer: nucleocapsid gRNA copies/ μL (SARS-CoV-2 Delta variant [4]; 80mg/kg): 3072139 copies/ μL and 3630875 copies/ μL and 3484205 copies/ μL and 3410466 copies/ μL and 4171196 copies/ μL; Log10 (FFU/g) (SARS-CoV-2 Delta variant [4]; 80mg/kg): 488571 FFU/g and 702857 FFU/g and 351429 FFU/g and 720000 FFU/g and 531429 FFU/g; nucleocapsid gRNA copies/ μL (SARS-CoV-2 Delta variant [4]; 150mg/kg): 3129847 copies/ μL and 270812 copies/ μL and 4369083 copies/ μL and 2646326 copies/ μL and 9650757 copies/ μL; Log10 (FFU/g) (SARS-CoV-2 Delta variant [4]; 150mg/kg): 342857 FFU/g and 368571 FFU/g and 531429 FFU/g and 360000 FFU/g and 420000 FFU/g; Viral titer in lungs (SARS-CoV-2 Delta variant [4]; mouse, in vivo): did not inhibit virus replication; lung histopathology (SARS-CoV-2 Delta variant [4]; mouse, in vivo): multiple sites of injury and inflammatory cell infiltration
